# Tests used:
# [1] = tested on: HGC-27 (E542K); experiment: Proliferation inhibition of PI3Kα mutant cancer cells, Cell Titer-Glo, HGC-27; assay type: cell-based; conditions: Homo sapiens
# Protocol: (§1) The proliferation inhibitory effect of the compounds of the examples on the PI3Kα mutant cancer cell lines (HCC1954, HGC-27 and MKN1) was detected by Cell Titer-Glo method. Cell lines were cultured in RPMI 1640 medium (Gibco #22400089) containing 10% FBS (Gibco #10091148) and 1% P/S (Hyclone #SV30010) under the condition of 37° C. and 5% CO2. The cells were collected before the experiment, and the cell density was adjusted after cell counting. The cells were seeded in a white 96-well plate (Corning #3610) at a density of 1000 to 10000 cells/well, and incubated in an incubator at 37° C. and 5% CO2 overnight. The prepared compound solutions of different concentrations and the corresponding solvent controls were added to the plate. The plate was again incubated in an incubator at 37° C. and 5% CO2 for 48 to 96 hours. Then the cell plate and its contents were equilibrated to room temperature. 20 to 100 μL of Cell Titer-Glo solution (Promega #G7573) was added to each well, and the plate was shaken and mixed well, then incubated at room temperature for 5 to 30 minutes in the dark. The chemiluminescence was measured by a SynergyH1 microplate reader from BioTek.
# (§2) The percentage inhibition data of the compound-treated well was calculated from solvent control wells on the plate {% inhibition=100−(test compound value−solvent control value)×100}. IC50 values were calculated using GraphPad prism and using a four-parameter nonlinear logistic formula to fit the data of different concentrations and corresponding percent inhibition.
# [2] = biological target: T1, PI3Kγ (Homo sapiens, UniProt P48736); experiment: ADP-Glo Lipid Kinase Assay, PI3Kγ kinase activity; assay type: biochemical; conditions: ratio of IC50 values
# T1 construct: purchased Thermofisher #PV4786
# Protocol: (§3) In this experiment, ADP-Glo Lipid Kinase Assay (Promega #V9102) from Promega was used. The lipid kinases PI3Kα/β/γ/δ catalyzed the ATP-to-ADP reaction in the presence of the substrate PIP2:3PS and ATP. The lipid kinase activity was characterized by measuring the ADP content in the reaction, and the half inhibition concentrations IC50 of the compounds on PI3Kα/β/γ/δ kinase activity were obtained.
# (§4) Kinase reactions were carried out in white 384-well plates (Perkin Elmer #6007299). 2 μL of the compound of various concentrations diluted with ddH2O containing 1% DMSO was added to each well, and 2 μL of ddH2O containing 1% DMSO was added to positive control wells. Then 2 μL of 0.1 to 2 nM PI3K kinase solution diluted with 5× kinase buffer (HEPES 250 mM, MgCl2 15 mM, NaCl 250 mM, BSA 0.05%) was added to each well, and 2 μL of 5× kinase buffer was added to the negative control wells. 4 μL of 50 μM substrate PIP2:3PS (Promega #V1701) prepared with 10× Dilution buffer and ddH2O was added to all wells. Finally, 2 μL of 50 to 100 μM ATP solution diluted with water was added to start the reaction. After the reaction was carried out at room temperature for 90 to 120 minutes, 10 µL of ADP-Glo Reagent (containing 10 mM MgCl2) was added to each well, and the reaction was carried out at room temperature for 60 minutes to eliminate excess adenosine triphosphate (ATP) in the reaction. Then 20 μL of Kinase Detection Reagent was added to each well. After the reaction was carried out for 20 minutes at room temperature in the dark, the chemiluminescence was measured by BioTek Synergy H1 microplate reader.
# as §2, with “positive” for “solvent”, “wells (DMSO control wells) and negative control wells (no kinase added)” for “wells”, “inhibition=100−[(test” for “inhibition=100−(test”, “value−negative control value)]/(positive control value-negative” for “value−solvent”
# [3] = tested on: HCC1954 (H1047R); experiment: Proliferation inhibition of PI3Kα mutant cancer cells, Cell Titer-Glo, HCC1954; assay type: cell-based; conditions: Homo sapiens
# Protocol: as §1, §2
# [4] = biological target: T2, PI3Kβ (Homo sapiens, UniProt P42338); experiment: ADP-Glo Lipid Kinase Assay, PI3Kβ kinase activity; assay type: biochemical; conditions: ratio of IC50 values
# T2 construct: purchased Carna #11-102
# Protocol: as §3, §4
# as §2, with “positive” for “solvent”, “wells (DMSO control wells) and negative control wells (no kinase added)” for “wells”, “inhibition=100−[(test” for “inhibition=100−(test”, “value−negative control value)]/(positive control value-negative” for “value−solvent”
# [5] = tested on: MKN1 (E545K); experiment: Proliferation inhibition of PI3Kα mutant cancer cells, Cell Titer-Glo, MKN1; assay type: cell-based; conditions: Homo sapiens, MKN-1
# Protocol: as §1, §2
# [6] = biological target: T3, PI3Kδ (Homo sapiens, UniProt O00329); experiment: ADP-Glo Lipid Kinase Assay, PI3Kδ kinase activity; assay type: biochemical; conditions: ratio of IC50 values
# T3 construct: purchased Carna #11-103
# Protocol: as §3, §4
# as §2, with “positive” for “solvent”, “wells (DMSO control wells) and negative control wells (no kinase added)” for “wells”, “inhibition=100−[(test” for “inhibition=100−(test”, “value−negative control value)]/(positive control value-negative” for “value−solvent”
# T3 sequence (O00329 whole entry): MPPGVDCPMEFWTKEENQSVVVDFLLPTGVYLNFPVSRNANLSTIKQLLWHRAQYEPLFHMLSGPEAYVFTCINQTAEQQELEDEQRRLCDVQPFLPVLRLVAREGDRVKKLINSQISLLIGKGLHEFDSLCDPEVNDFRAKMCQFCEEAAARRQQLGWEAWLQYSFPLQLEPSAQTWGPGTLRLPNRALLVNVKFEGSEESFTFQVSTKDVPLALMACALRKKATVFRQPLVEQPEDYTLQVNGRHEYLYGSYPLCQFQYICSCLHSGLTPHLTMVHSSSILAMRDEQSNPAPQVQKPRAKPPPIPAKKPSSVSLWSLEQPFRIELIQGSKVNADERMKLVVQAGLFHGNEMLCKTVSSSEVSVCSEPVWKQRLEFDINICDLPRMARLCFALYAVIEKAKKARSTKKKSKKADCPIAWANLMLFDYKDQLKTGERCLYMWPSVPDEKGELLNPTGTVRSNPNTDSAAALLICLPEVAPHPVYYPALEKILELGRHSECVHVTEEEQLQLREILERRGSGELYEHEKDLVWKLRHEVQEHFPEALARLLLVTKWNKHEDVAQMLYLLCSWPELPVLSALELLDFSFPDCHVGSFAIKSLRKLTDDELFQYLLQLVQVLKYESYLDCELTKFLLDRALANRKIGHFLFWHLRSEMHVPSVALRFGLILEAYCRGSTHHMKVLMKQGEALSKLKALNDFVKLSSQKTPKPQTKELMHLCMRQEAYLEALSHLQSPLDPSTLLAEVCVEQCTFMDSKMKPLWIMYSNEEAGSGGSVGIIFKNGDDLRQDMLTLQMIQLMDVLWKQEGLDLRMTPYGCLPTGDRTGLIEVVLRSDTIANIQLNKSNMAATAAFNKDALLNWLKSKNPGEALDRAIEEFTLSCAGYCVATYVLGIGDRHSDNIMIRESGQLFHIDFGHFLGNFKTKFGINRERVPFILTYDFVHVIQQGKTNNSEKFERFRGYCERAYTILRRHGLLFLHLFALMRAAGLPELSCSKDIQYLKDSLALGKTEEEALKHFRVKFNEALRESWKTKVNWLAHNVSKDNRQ
# T3 sequence (P27986 whole entry partner): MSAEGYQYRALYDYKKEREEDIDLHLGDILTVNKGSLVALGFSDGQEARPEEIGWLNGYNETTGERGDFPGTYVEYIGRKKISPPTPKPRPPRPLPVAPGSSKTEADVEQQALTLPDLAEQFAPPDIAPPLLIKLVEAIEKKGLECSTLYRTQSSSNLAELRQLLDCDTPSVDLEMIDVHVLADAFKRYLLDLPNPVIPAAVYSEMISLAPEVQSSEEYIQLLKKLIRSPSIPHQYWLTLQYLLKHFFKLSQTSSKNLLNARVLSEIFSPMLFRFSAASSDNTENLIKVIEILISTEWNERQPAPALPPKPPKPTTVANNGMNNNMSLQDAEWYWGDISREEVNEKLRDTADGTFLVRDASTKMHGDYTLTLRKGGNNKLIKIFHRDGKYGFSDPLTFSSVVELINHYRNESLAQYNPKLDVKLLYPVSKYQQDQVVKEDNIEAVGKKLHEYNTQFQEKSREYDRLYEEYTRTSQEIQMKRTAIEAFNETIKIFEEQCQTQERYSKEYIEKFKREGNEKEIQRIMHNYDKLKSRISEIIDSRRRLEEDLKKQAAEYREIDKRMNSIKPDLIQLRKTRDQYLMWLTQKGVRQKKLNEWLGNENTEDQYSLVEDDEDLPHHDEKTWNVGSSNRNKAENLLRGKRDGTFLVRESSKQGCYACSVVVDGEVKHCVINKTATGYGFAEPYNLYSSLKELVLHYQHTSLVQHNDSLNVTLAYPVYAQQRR
# T1 sequence (P48736 whole entry): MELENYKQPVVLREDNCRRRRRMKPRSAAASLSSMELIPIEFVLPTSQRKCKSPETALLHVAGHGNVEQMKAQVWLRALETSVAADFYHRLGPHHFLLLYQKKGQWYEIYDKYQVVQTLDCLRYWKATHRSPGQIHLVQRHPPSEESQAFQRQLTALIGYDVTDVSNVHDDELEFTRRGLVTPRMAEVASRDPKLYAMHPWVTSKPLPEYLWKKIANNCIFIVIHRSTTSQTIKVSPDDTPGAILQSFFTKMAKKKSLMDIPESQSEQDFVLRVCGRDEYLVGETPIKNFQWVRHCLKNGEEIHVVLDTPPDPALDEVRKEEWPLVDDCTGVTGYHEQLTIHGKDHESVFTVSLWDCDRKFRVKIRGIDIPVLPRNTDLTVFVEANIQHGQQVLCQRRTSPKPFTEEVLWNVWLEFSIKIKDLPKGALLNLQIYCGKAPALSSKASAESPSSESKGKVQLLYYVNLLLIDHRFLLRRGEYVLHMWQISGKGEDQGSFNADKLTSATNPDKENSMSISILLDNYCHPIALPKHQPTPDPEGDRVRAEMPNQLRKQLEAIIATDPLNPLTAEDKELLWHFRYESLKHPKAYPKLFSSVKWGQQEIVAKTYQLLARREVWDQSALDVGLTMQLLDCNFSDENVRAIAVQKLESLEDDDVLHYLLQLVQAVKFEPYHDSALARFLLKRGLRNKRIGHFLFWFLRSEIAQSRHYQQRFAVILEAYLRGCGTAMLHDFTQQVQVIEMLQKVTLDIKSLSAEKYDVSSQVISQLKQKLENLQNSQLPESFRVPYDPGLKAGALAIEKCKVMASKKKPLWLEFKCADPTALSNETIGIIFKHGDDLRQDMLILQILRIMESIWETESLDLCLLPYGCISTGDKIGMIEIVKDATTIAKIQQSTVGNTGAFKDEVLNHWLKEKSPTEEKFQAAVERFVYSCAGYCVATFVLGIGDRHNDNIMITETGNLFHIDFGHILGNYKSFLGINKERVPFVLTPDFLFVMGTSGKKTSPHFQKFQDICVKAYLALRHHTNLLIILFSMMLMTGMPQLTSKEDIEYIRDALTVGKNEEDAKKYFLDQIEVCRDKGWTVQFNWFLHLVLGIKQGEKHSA
# T2 sequence (P42338 whole entry): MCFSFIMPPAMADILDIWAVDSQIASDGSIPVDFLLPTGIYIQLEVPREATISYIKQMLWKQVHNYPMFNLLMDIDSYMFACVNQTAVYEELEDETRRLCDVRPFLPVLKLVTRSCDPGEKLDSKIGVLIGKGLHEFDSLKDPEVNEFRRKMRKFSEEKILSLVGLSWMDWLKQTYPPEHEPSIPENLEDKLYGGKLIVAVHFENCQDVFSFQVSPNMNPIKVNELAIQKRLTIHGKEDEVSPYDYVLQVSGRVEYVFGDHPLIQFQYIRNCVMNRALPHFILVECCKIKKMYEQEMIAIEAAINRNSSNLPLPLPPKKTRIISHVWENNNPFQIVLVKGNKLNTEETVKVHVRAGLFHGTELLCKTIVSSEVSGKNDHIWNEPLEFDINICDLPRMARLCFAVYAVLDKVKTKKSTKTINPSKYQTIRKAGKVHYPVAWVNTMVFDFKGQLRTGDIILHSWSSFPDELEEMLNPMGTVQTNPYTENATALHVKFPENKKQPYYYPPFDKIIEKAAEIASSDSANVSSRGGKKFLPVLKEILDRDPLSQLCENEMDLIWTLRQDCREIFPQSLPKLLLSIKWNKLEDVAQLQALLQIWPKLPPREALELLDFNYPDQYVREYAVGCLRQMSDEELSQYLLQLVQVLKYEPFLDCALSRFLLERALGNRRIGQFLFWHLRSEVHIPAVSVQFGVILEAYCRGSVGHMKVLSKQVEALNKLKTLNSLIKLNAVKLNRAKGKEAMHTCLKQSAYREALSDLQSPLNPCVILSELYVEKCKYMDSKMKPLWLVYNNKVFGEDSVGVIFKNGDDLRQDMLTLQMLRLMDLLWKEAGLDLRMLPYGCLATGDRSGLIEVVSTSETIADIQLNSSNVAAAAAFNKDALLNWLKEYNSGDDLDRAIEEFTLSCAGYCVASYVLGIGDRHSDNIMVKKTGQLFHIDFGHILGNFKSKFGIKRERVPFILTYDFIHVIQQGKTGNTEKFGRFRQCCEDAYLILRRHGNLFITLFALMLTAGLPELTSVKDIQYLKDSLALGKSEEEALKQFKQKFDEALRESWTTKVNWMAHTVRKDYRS
# T2 sequence (P27986 whole entry partner): as the sequence (P27986 whole entry partner) above
IC50 [1] [nM],Selectivity of PI3Kα vs PI3Kγ [2],IC50 [3] [nM],Selectivity of PI3Kα vs PI3Kβ [4],IC50 [5] [nM],Selectivity of PI3Kα vs PI3Kδ [6],Structure (SMILES)
325,214,160,1101,508,125,"CC(Nc1ccc2c(c1)OCCn1cc(N3C(=O)OC(C)[C@H]3C(F)F)nc1-2)C(N)=O (stereo in doubt) [Example 26, (R)-2-((2-((4S,5R)-4-(difluoromethyl)-5-methyl-2-oxooxazolidin-3-yl)-5,6-dihydrobenzo[f]imidazo[1,2-d][1,4]oxazepin-9-yl)amino)propionamide]"
531,–,222,–,368,–,"COC[C@H](Nc1ccc2c(c1)OCCn1cc(N3C(=O)OC[C@H]3C(F)F)nc1-2)C(N)=O [Example 43, (S)-2-((2-((S)-4-(difluoromethyl)-2-oxooxazolidin-3-yl)-5,6-dihydrobenzo[f]imidazo[1,2-d][1,4]oxazepin-9-yl)amino)-3-methoxypropionamide]"
186,243,184,785,268,90,"C[C@H](Nc1ccc2c(c1)OCCn1cc(N3C(=O)CC[C@H]3C(F)F)nc1-2)C(N)=O [Example 46, (S)-2-((2-((S)-2-(difluoromethyl)-5-oxopyrrolidin-1-yl)-5,6-dihydrobenzo[f]imidazo[1,2-d][1,4]oxazepin-9-yl)amino)propionamide]"
499,87,226,178,653,59,"C[C@H](Nc1ccc2c(c1F)OCCn1cc(N3C(=O)OC[C@H]3C(F)F)nc1-2)C(N)=O [Example 31, (S)-2-((2-((S)-4-(difluoromethyl)-2-oxooxazolidin-3-yl)-8-fluoro-5,6-dihydrobenzo[f]imidazo[1,2-d][1,4]oxazepin-9-yl)amino)propionamide]"
–,226,–,>1266,–,177,"C[C@H](Nc1ccc2c(c1)OCCn1c-2nc(N2C(=O)OC[C@H]2C(F)F)c1F)C(N)=O [Example 1, (S)-2-((2-((S)-4-(difluoromethyl)-2-oxooxazolidin-3-yl)-3-fluoro-5,6-dihydrobenzo[f]imidazo[1,2-d][1,4]oxazepin-9-yl)amino)propionamide]"
77,254,40,423,66,43,"NC(=O)[C@@H]1CCCN1c1ccc2c(c1)OCCn1cc(N3C(=O)SC[C@H]3C(F)F)nc1-2 [Example 53, (S)-1-(2-((R)-4-(difluoromethyl)-2-oxothiazolidin-3-yl)-5,6-dihydrobenzo[f]imidazo[1,2-d][1,4]oxazepin-9-yl)pyrrolidine-2-carboxamide]"

# Second part, the molecule before the results:
Structure (SMILES),IC50 [1] [nM],Selectivity of PI3Kα vs PI3Kγ [2],IC50 [3] [nM],Selectivity of PI3Kα vs PI3Kβ [4],IC50 [5] [nM],Selectivity of PI3Kα vs PI3Kδ [6]
"C[C@@H](C(N)=O)N(C)c1ccc2c(c1)OCCn1cc(N3C(=O)SC[C@H]3C(F)F)nc1-2 [Example 54, (S)-2-((2-((R)-4-(difluoromethyl)-2-oxothiazolidin-3-yl)-5,6-dihydrobenzo[f]imidazo[1,2-d][1,4]oxazepin-9-yl)(methyl)amino)propionamide]",32,217,29,238,42,31
"CC(C)[C@H](Nc1ccc2c(c1)OCCn1cc(N3C(=O)OC[C@H]3C(F)F)nc1-2)C(N)=O [Example 14, (S)-2-((2-((S)-4-(difluoromethyl)-2-oxooxazolidin-3-yl)-5,6-dihydrobenzo[f]imidazo[1,2-d][1,4]oxazepin-9-yl)amino)-3-methylbutanamide]",417,112,204,358,615,103
"NC(=O)[C@@H]1CCN1c1ccc2c(c1)OCCn1cc(N3C(=O)OC[C@H]3C(F)F)nc1-2 [Example 21, (S)-1-(2-((S)-4-(difluoromethyl)-2-oxooxazolidin-3-yl)-5,6-dihydrobenzo[f]imidazo[1,2-d][1,4]oxazepin-9-yl)azetidine-2-carboxamide]",396,–,205,–,399,–
"COC[C@H](Nc1ccc2c(c1F)OCCn1cc(N3C(=O)SC[C@H]3C(F)F)nc1-2)C(N)=O [Example 51, (S)-2-((2-((R)-4(difluoromethyl)-2-oxothiazolidin-3-yl)-8-fluoro-5,6-dihydrobenzo[f]imidazo[1,2-d][1,4]oxazepin-9-yl)amino)-3-methoxypropionamide]",455,170,243,157,426,51
"C[C@H](Nc1cc(F)c2c(c1)OCCn1cc(N3C(=O)OC[C@H]3C(F)F)nc1-2)C(N)=O [Example 32, (S)-2-((2-((S)-4-(difluoromethyl)-2-oxooxazolidin-3-yl)-11-fluoro-5,6-dihydrobenzo[f]imidazo[1,2-d][1,4]oxazepin-9-yl)amino)propionamide]",–,98,–,536,–,88
"C[C@H](Nc1ccc2c(c1)OCCn1cc(N3C(=O)N(C)C[C@H]3C(F)F)nc1-2)C(N)=O [Example 24, (S)-2-((2-((S)-5-(difluoromethyl)-3-methyl-2-oxoimidazolidin-1-yl)-5,6-dihydrobenzo[f]imidazo[1,2-d][1,4]oxazepin-9-yl)amino)propionamide]",–,80,–,1238,–,75
"C[C@@H](C(N)=O)N(C)c1ccc2c(c1)OCCn1cc(N3C(=O)OC[C@H]3C(F)F)nc1-2 [Example 19, (S)-2-((2-((S)-4-(difluoromethyl)-2-oxooxazolidin-3-yl)-5,6-dihydrobenzo[f]imidazo[1,2-d][1,4]oxazepin-9-yl)(methyl)amino)propionamide]",169,648,112,329,214,29
